According to PubChem BioAssay AID1259407 (Chemical Carcinogenesis Research Information System (CCRIS), 2018):
Active and inactive are the calls of the source. No rule for the calls is given here.

System: CCRIS mutagenicity, Ames/micronucleus/aberration tests
Experiment: CCRIS mutagenicity studies
[1] = Test System: AMES SALMONELLA TYPHIMURIUM, Strain/Indicator: TA98, Metabolic Activation: NONE, Method: STANDARD PLATE
[2] = Test System: AMES SALMONELLA TYPHIMURIUM, Strain/Indicator: TA100, Metabolic Activation: NONE, Method: STANDARD PLATE
[3] = Test System: AMES SALMONELLA TYPHIMURIUM, Strain/Indicator: TA100, Metabolic Activation: NONE, Method: PREINCUBATION
[4] = Test System: AMES SALMONELLA TYPHIMURIUM, Strain/Indicator: TA1535, Metabolic Activation: NONE, Method: PREINCUBATION
[5] = Test System: AMES SALMONELLA TYPHIMURIUM, Strain/Indicator: TA1535, Metabolic Activation: NONE, Method: STANDARD PLATE

In the case of ClCc1cc2c3c(cccc3c1)-c1ccccc1-2, the mutagenic call [1] is reported as “active; positive” and the mutagenic call [2] is reported as “active; positive”.
For c1ccc(Cc2ccc(CC3CO3)cc2)cc1 (configuration not stated), the mutagenic call [3] was “inactive; negative”, the mutagenic call [2] was “active; positive” and the mutagenic call [4] was “inactive; negative”. The mutagenic call [5] was “active; positive”.
In the case of CCN(CCCl)CCCNc1c2ccccc2nc2ccccc12, the mutagenic call [1] is reported as “active; positive”, the mutagenic call [2] is reported as “active; positive” and the mutagenic call [5] is reported as “inactive; negative”. The mutagenic call (Test System: AMES SALMONELLA TYPHIMURIUM, Strain/Indicator: TA1536, Metabolic Activation: NONE, Method: STANDARD PLATE) was “active; positive”, the mutagenic call (Test System: AMES SALMONELLA TYPHIMURIUM, Strain/Indicator: TA1537, Metabolic Activation: NONE, Method: STANDARD PLATE) was “active; positive” and the mutagenic call (Test System: AMES SALMONELLA TYPHIMURIUM, Strain/Indicator: TA1538, Metabolic Activation: NONE, Method: STANDARD PLATE) was “active; positive”.
CN(N=O)C(=O)Nc1ccc(F)cc1 was tested, and the mutagenic call (End Point: IN VITRO CHROMOSOMAL ABERRATIONS, Test System: CHINESE HAMSTER V79-E CELLS, Metabolic Activation: NONE) was “active; weakly positive”.
COC=O was tested, and the mutagenic call (Test System: AMES SALMONELLA TYPHIMURIUM, Strain/Indicator: TA97, Metabolic Activation: HAMSTER, LIVER, S-9, AROCLOR 1254 (10 OR 30%), Method: PREINCUBATION) was “inactive; negative”, the mutagenic call (Test System: AMES SALMONELLA TYPHIMURIUM, Strain/Indicator: TA97, Metabolic Activation: NONE, Method: PREINCUBATION) was “inactive; negative” and the mutagenic call (Test System: AMES SALMONELLA TYPHIMURIUM, Strain/Indicator: TA97, Metabolic Activation: RAT, LIVER, S-9, AROCLOR 1254 (10 OR 30%), Method: PREINCUBATION) was “inactive; negative”. For the same molecule, the mutagenic call (Test System: AMES SALMONELLA TYPHIMURIUM, Strain/Indicator: TA98, Metabolic Activation: HAMSTER, LIVER, S-9, AROCLOR 1254 (10 OR 30%), Method: PREINCUBATION) was “inactive; negative”, the mutagenic call (Test System: AMES SALMONELLA TYPHIMURIUM, Strain/Indicator: TA98, Metabolic Activation: NONE, Method: GAS EXPOSURE) was “inactive; negative” and the mutagenic call (Test System: AMES SALMONELLA TYPHIMURIUM, Strain/Indicator: TA98, Metabolic Activation: NONE, Method: PREINCUBATION) was “inactive; negative”. The mutagenic call (Test System: AMES SALMONELLA TYPHIMURIUM, Strain/Indicator: TA98, Metabolic Activation: RAT, LIVER, S-9, AROCLOR 1254 (10 OR 30%), Method: PREINCUBATION) was “inactive; negative”, the mutagenic call (Test System: AMES SALMONELLA TYPHIMURIUM, Strain/Indicator: TA98, Metabolic Activation: RAT, LIVER, S-9, SODIUM PHENOBARBITAL AND 5,6-BENZOFLAVONE, Method: GAS EXPOSURE) was “inactive; negative” and the mutagenic call (Test System: AMES SALMONELLA TYPHIMURIUM, Strain/Indicator: TA100, Metabolic Activation: HAMSTER, LIVER, S-9, AROCLOR 1254 (10 OR 30%), Method: PREINCUBATION) was “inactive; negative”. For the same molecule, the mutagenic call (Test System: AMES SALMONELLA TYPHIMURIUM, Strain/Indicator: TA100, Metabolic Activation: NONE, Method: GAS EXPOSURE) was “inactive; negative”, the mutagenic call [3] was “inactive; negative” and the mutagenic call (Test System: AMES SALMONELLA TYPHIMURIUM, Strain/Indicator: TA100, Metabolic Activation: RAT, LIVER, S-9, AROCLOR 1254 (10 OR 30%), Method: PREINCUBATION) was “inactive; negative”. For the same molecule, the mutagenic call (Test System: AMES SALMONELLA TYPHIMURIUM, Strain/Indicator: TA100, Metabolic Activation: RAT, LIVER, S-9, SODIUM PHENOBARBITAL AND 5,6-BENZOFLAVONE, Method: GAS EXPOSURE) was “inactive; negative”, the mutagenic call (Test System: AMES SALMONELLA TYPHIMURIUM, Strain/Indicator: TA1535, Metabolic Activation: HAMSTER, LIVER, S-9, AROCLOR 1254 (10 OR 30%), Method: PREINCUBATION) was “inactive; negative” and the mutagenic call (Test System: AMES SALMONELLA TYPHIMURIUM, Strain/Indicator: TA1535, Metabolic Activation: NONE, Method: GAS EXPOSURE) was “inactive; negative”. The mutagenic call [4] was “inactive; negative”, the mutagenic call (Test System: AMES SALMONELLA TYPHIMURIUM, Strain/Indicator: TA1535, Metabolic Activation: RAT, LIVER, S-9, AROCLOR 1254 (10 OR 30%), Method: PREINCUBATION) was “inactive; negative” and the mutagenic call (Test System: AMES SALMONELLA TYPHIMURIUM, Strain/Indicator: TA1535, Metabolic Activation: RAT, LIVER, S-9, SODIUM PHENOBARBITAL AND 5,6-BENZOFLAVONE, Method: GAS EXPOSURE) was “inactive; negative”. The mutagenic call (Test System: AMES SALMONELLA TYPHIMURIUM, Strain/Indicator: TA1537, Metabolic Activation: NONE, Method: GAS EXPOSURE) was “inactive; negative”, the mutagenic call (Test System: AMES SALMONELLA TYPHIMURIUM, Strain/Indicator: TA1537, Metabolic Activation: RAT, LIVER, S-9, SODIUM PHENOBARBITAL AND 5,6-BENZOFLAVONE, Method: GAS EXPOSURE) was “inactive; negative” and the mutagenic call (Test System: E. COLI, Strain/Indicator: WP2UVRA, Metabolic Activation: NONE, Method: GAS EXPOSURE) was “inactive; negative”. For the same molecule, the mutagenic call (Test System: E. COLI, Strain/Indicator: WP2UVRA, Metabolic Activation: RAT, LIVER, S-9, PHENOBARBITAL AND BETA--NAPHTHOFLAVONE, Method: GAS EXPOSURE) was “inactive; negative”.
With Cc1cc(S(=O)(=O)O)c(N)cc1Cl the mutagenic call (Test System: AMES SALMONELLA TYPHIMURIUM, Strain/Indicator: TA98, Metabolic Activation: HAMSTER, LIVER, S-9, AROCLOR 1254, Method: STANDARD PLATE) was “active; positive”, the mutagenic call [1] was “inactive; negative” and the mutagenic call (Test System: AMES SALMONELLA TYPHIMURIUM, Strain/Indicator: TA98, Metabolic Activation: RAT, LIVER, S-9, AROCLOR 1254, Method: STANDARD PLATE) was “active; positive”. For the same molecule, the mutagenic call (Test System: AMES SALMONELLA TYPHIMURIUM, Strain/Indicator: TA100, Metabolic Activation: HAMSTER, LIVER, S-9, AROCLOR 1254, Method: STANDARD PLATE) was “inactive; negative”, the mutagenic call [2] was “inactive; negative” and the mutagenic call (Test System: AMES SALMONELLA TYPHIMURIUM, Strain/Indicator: TA100, Metabolic Activation: RAT, LIVER, S-9, AROCLOR 1254, Method: STANDARD PLATE) was “inactive; negative”. For the same molecule, the mutagenic call (Test System: Ames Salmonella typhimurium, Strain/Indicator: TA98, Metabolic Activation: None, Method: Preincubation) was “inactive; negative”, the mutagenic call (Test System: Ames Salmonella typhimurium, Strain/Indicator: TA98, Metabolic Activation: Rat, Liver, S9, Sodium phenobarbital and 5,6-benzoflavone (10%), Method: Preincubation) was “inactive; negative” and the mutagenic call (Test System: Ames Salmonella typhimurium, Strain/Indicator: TA100, Metabolic Activation: None, Method: Preincubation) was “inactive; negative”. For the same molecule, the mutagenic call (Test System: Ames Salmonella typhimurium, Strain/Indicator: TA100, Metabolic Activation: Rat, Liver, S9, Sodium phenobarbital and 5,6-benzoflavone (10%), Method: Preincubation) was “inactive; negative”, the mutagenic call (Test System: Ames Salmonella typhimurium, Strain/Indicator: TA1535, Metabolic Activation: None, Method: Preincubation) was “inactive; negative” and the mutagenic call (Test System: Ames Salmonella typhimurium, Strain/Indicator: TA1535, Metabolic Activation: Rat, Liver, S9, Sodium phenobarbital and 5,6-benzoflavone (10%), Method: Preincubation) was “inactive; negative”. For the same molecule, the mutagenic call (Test System: Ames Salmonella typhimurium, Strain/Indicator: TA1537, Metabolic Activation: None, Method: Preincubation) was “inactive; negative”, the mutagenic call (Test System: Ames Salmonella typhimurium, Strain/Indicator: TA1537, Metabolic Activation: Rat, Liver, S9, Sodium phenobarbital and 5,6-benzoflavone (10%), Method: Preincubation) was “inactive; negative” and the mutagenic call (Test System: E. coli, Strain/Indicator: WP2uvrA/pKM101, Metabolic Activation: None, Method: Preincubation) was “inactive; negative”. The mutagenic call (Test System: E. coli, Strain/Indicator: WP2uvrA/pKM101, Metabolic Activation: Rat, Liver, S9, Sodium phenobarbital and 5,6-benzoflavone (10%), Method: Preincubation) was “inactive; negative”, the mutagenic call (Test System: MOUSE LYMPHOMA, Strain/Indicator: L5178Y (TK+/TK-), Metabolic Activation: NONE, Method: SUSPENSION/PLATE) was “inactive; negative. reevaluation of results: negative” and the mutagenic call (Test System: MOUSE LYMPHOMA, Strain/Indicator: L5178Y (TK+/TK-), Metabolic Activation: RAT, LIVER, S-9, AROCLOR 1254, Method: SUSPENSION/PLATE) was “inactive; negative. reevaluation of results: equivocal”. The mutagenic call (Test System: UDS RODENT HEPATOCYTES, Strain/Indicator: THY INCORP (NON-S-PHASE), Metabolic Activation: NONE, Method: AUTORADIOGRAPHY) was “inactive; negative”.
In the case of O=C1C=C(N2CC2)C(=O)C(N2CC2)=C1N1CC1, the mutagenic call (Test System: UDS RODENT PRIMARY, Strain/Indicator: THY INCORP (NON-S-PHASE), Metabolic Activation: NONE, Method: LIQUID SCINTILLATION COUNTING) is reported as “active; positive”.
In the case of O=C(O)C1CCCN1 (configuration not stated), the mutagenic call (Test System: AMES SALMONELLA TYPHIMURIUM, Strain/Indicator: TA98, Metabolic Activation: RAT LIVER S-9, CHLOROPHENE, Method: STANDARD PLATE (COMPOUND HEATED AT 250 DEGREES CELSIUS FOR 20 MIN)) is reported as “active; positive”.
In the case of CCCCCCCC(=O)N=c1sn(C(=O)CCCCCCC)c2ccc([N+](=O)[O-])cc12, the mutagenic call (Test System: AMES SALMONELLA TYPHIMURIUM, Strain/Indicator: TA100, Metabolic Activation: S-9, Method: STANDARD PLATE) is reported as “active; positive”.
